Test results: article PMC10746280, “Bacterial efflux pump modulators prevent bacterial growth in macrophages and under broth conditions that mimic the host environment” (mBio, 2023)

Experiments:
[1] = test system: S. Typhimurium SL1344 (sifB::gfp) in RAW 264.7 macrophages; experiment: SAFIRE macrophage assay: intracellular bacterial load (GFP signal within macrophages); type: cell-based, Salmonella enterica serotype Typhimurium; settings: 'Toxic' given instead of a score
Method in brief: (§1)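 RAW 264.7 macrophages infected with S. Typhimurium SL1344 sifB::gfp (MOI ~30), gentamicin 40 µg/mL, then compound from 2 h to 18 h post-infection. Confocal imaging with MitoTracker and DAPI; toxicity as adherent MitoTracker-positive macrophage count, bacterial load as GFP+ macrophage area.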

RAW 264.7 macrophages = experiment: SAFIRE macrophage assay: host toxicity (adherent macrophage count, morphology); type: cell-based
Method in brief: as §1

Compound | 5 uM Avg Antibacterial Score [1] | 25 uM Avg Antibacterial Score [1] | 5 uM Avg Cell # Score (RAW 264.7 macrophages) | 25 uM Avg Cell # Score (RAW 264.7 macrophages)
O[C@H](COc1ccc(Cl)c(Cl)c1)CN1CCC(Nc2nccc(C(F)(F)F)n2)CC1 [CU137] | 5.37 | Toxic | 91 | 67
O[C@@H](COc1ccc(Cl)c(Cl)c1)CN1CCC(Nc2nccc(C(F)(F)F)n2)CC1 [CU138] | 7 | Toxic | 85 | 75
OC(COc1ccccc1F)CN1CCC(Nc2nccc(C(F)(F)F)n2)C1 (stereo not shown) [CU139] | 99 | 28 | 95 | 73
OC(COc1ccc(Cl)cc1)CN1CCC(NC2CC2)C1 (stereo not shown) [CU140] | 87 | 73 | 122 | 130
OC(COc1ccccc1Cl)CN1CCC(NC2CC2)C1 (stereo not shown) [CU141] | 81 | 79 | 116 | 137
CN(C)C1CCN(CC(O)COc2ccc(Cl)c(Cl)c2)C1 (stereo not shown) [CU142] | 77 | 47 | 104 | 113
CN(CC(O)COc1ccc(Cl)c(Cl)c1)C1CCNC1 (stereo not shown) [CU143] | 84 | 55 | 113 | 117
NC1CCCN(CC(O)COc2ccc(Cl)c(Cl)c2)C1 (stereo not shown) [CU144] | 63 | 29 | 99 | 105
OC(COc1ccc(Cl)c(Cl)c1)CN1CCCNCC1 (stereo not shown) [CU145] | 69 | 39 | 94 | 120
O=C1OC(COc2ccc(Cl)c(Cl)c2)CN1C1CCNC1 (stereo not shown) [CU146] | 89 | 51 | 95 | 117
CSc1ccc(OCC(O)CN2CCC(Nc3nccc(C(F)(F)F)n3)CC2)cc1 (stereo not shown) [CU147] | 72 | Toxic | 121 | 43
Cc1ccc(Cl)c(OCC(O)CN2CCC(Nc3nccc(C(F)(F)F)n3)CC2)c1 (stereo not shown) [CU148] | 48 | Toxic | 123 | 39
OC(COc1ccc(Cl)c(Cl)c1)CN1CCC2(CCN2)C1 (stereo not shown) [CU149] | 73 | 53 | 128 | 108
NC1CCN(CC(O)COc2ccccc2)C1 (stereo not shown) [CU151] | 108 | 91 | 128 | 147
COc1ccc(OCC(O)CN2CCC(N)C2)cc1 (stereo not shown) [CU152] | 103 | 91 | 116 | 142
NC1CCN(CC(O)COc2ccc(F)cc2)C1 (stereo not shown) [CU153] | 106 | 85 | 103 | 131
N#Cc1ccc(OCC(O)CN2CCC(N)C2)cc1 (stereo not shown) [CU154] | 112 | 111 | 99 | 123
OC(CNCc1csc(Cl)c1)COc1ccc(Cl)c(Cl)c1 (stereo not shown) [CU155] | 107 | Toxic | 95 | 78
OC(COc1ccc(Cl)c(Cl)c1)CN1CCn2cnnc2C1 (stereo not shown) [CU156] | 110 | 107 | 97 | 124
